Measurements from patent US20170042883A1, “Methods for Detecting and Treating Rhinovirus Infection” (The Procter & Gamble Company, priority 2011, published 2017).

What follows are compounds tested on rhinovirus infection-induced inflammatory markers (IL-6, IP-10, and RANTES) in BEAS-2B (assay: rhinovirus infection-induced inflammatory markers in RV-16 infected BEAS-2B cells). Conditions: ibuprofen (20 µM) added with a subset of compounds at time of infection; two days post-infection; in a majority of instances.
Assay type: cell-based, human
Method: The effect of various identified compounds on rhinovirus infection-induced inflammatory markers (IL-6, IP-10, and RANTES) in the human bronchial epithelia cell line, BEAS-2B, was evaluated. Kaempferol, luteolin, quercetin, scutellarein, all-transretinoic acid, 3-hydroxyflavone, fustin, 3-methylquercetin, fisetin, apigenin, oxymetazoline HCl, chrysin, naringenin, pyrrolidinedithiocarbamate ammonium, 7-hydroxyflavone, myricetin, diosmetin, 4′,7-dihydroxyflavone, or eriodictyol was added to cell culture media at various doses at the time of RV-16 infection of BEAS-2B cells. IL-6, IP-10 and RANTES protein levels were measured three days post-infection. Cytotoxicity of the compounds was determined by the uptake of vital dye Rhinovirus infected BEAS-2B cells not exposed to the compounds served as a positive control, achieving maximum cytokine production. BEAS-2B cells not exposed to rhinovirus or the compounds served as a negative control. […] The study was repeated for a subset of compounds, and ibuprofen (20 µM) was added to the cell media with the compounds at the time of infection. IL-6, IP-10 and RANTES protein levels were measured two days post-infection.

Compound	levels of biomarkers associated with rhinovirus infection (IL-6, IP-10 and RANTES protein levels)
CC(C)Cc1ccc(C(C)C(=O)O)cc1 (centres unmarked) [ibuprofen]	further reduced

Same assay, conditions: result in words

Compound	anti-inflammatory effects in the rhinovirus infection mediated inflammation model
O=c1cc(-c2ccc(O)cc2)oc2cc(O)cc(O)c12 [Apigenin]	anti-inflammatory effects
O=c1cc(-c2ccc(O)c(O)c2)oc2cc(O)cc(O)c12 [luteolin]	anti-inflammatory effects
O=c1c(O)c(-c2cc(O)c(O)c(O)c2)oc2cc(O)cc(O)c12 [Myricetin]	anti-inflammatory effects
O=c1c(-c2ccc(O)cc2)coc2cc(O)ccc12 [daidzein]	anti-inflammatory effects
O=c1cc(-c2ccc(O)cc2)oc2cc(O)ccc12 [4′,7-dihydroxyflavone]	anti-inflammatory effects
O=C1C[C@@H](c2ccc(O)cc2)Oc2cc(O)cc(O)c21 [naringenin]	anti-inflammatory effects
3-methylquercetin	anti-inflammatory effects
Cc1cc(C(C)(C)C)c(O)c(C)c1CC1=NCCN1 [oxymetazoline]	anti-inflammatory effects
C[C@@H]1O[C@@H](OC[C@H]2O[C@@H](Oc3c(-c4ccc(OCCO)c(OCCO)c4)oc4cc(OCCO)cc(O)c4c3=O)[C@H](O)[C@@H](O)[C@@H]2O)[C@H](O)[C@H](O)[C@H]1O [troxerutin]	anti-inflammatory effects
O=c1cc(-c2ccccc2)oc2cc(O)ccc12 [7-hydroxyflavone]	anti-inflammatory effects
CC1=C(/C=C/C(C)=C/C=C/C(C)=C/C(=O)O)C(C)(C)CCC1 [all-transretinoic acid]	anti-inflammatory effects
O=c1c(-c2ccc(O)cc2)coc2cc(O)cc(O)c12 [genistein]	anti-inflammatory effects
COc1ccc(-c2cc(=O)c3c(O)cc(O)cc3o2)cc1O [diosmetin]	anti-inflammatory effects
O=c1c(O)c(-c2ccc(O)cc2)oc2cc(O)cc(O)c12 [kaempferol]	anti-inflammatory effects
O=c1c(O)c(-c2ccc(O)c(O)c2)oc2cc(O)ccc12 [fisetin]	anti-inflammatory effects
O=c1c(O)c(-c2ccccc2)oc2ccccc12 [3-hydroxyflavone]	anti-inflammatory effects
O=c1c(O)c(-c2ccc(O)c(O)c2)oc2cc(O)cc(O)c12 [quercetin]	anti-inflammatory effects
O=C1C[C@@H](c2ccc(O)c(O)c2)Oc2cc(O)cc(O)c21 [eriodictyol]	anti-inflammatory effects
O=C1c2ccc(O)cc2O[C@H](c2ccc(O)c(O)c2)[C@H]1O [fustin]	anti-inflammatory effects
